As a reminder, the half-life is the time needed for the level to fall by half in the phase considered. High values mean slow loss, low ones fast loss.

Data set [1] in a line: Half life in human plasma. The class given is ADME, cell-free.
A short description of data set [2]: Half life in human blood. The class given is ADME, tissue-based.
Data set [3] can be described thus: Half life of compound in human plasma. The class given is ADME, cell-free.
A short description of data set [4]: Half life of compound in PBS buffer at pH 7.4. The class given is physicochemical.
Data set [5] in a line: Half life of compound in PBS buffer at pH 7.4 at 50 uM by HPLC analysis. The class given is physicochemical.
Data set [6] is described as follows: Half life in human plasma at 10 uM. In kind it is ADME, cell-free.
Data set [7] in a line: Half life in human plasma measured after 2 days.
The nature of data set [8]: Half life in human liver microsomes at 1 uM measured up to 30 mins by LC-MS/MS analysis. The class given is ADME, Microsome.
Data set [9] can be described thus: Half life in human plasma by LC-MS/MS analysis. In kind it is ADME, cell-free.

For the compound `CC(=O)Oc1ccccc1C(=O)OC[S+](C)[O-]` (centres undefined), in data set [1], the half-life came out at 14 min. In [2], `CC(=O)Oc1ccccc1C(=O)O[C@@H]1CO[C@H]2[C@@H]1OC[C@@H]2OC(=O)c1ccccc1O` gave a half-life of 1 min. In [3], `CC(=O)Oc1ccccc1C(=O)O[C@H]1CO[C@H]2[C@@H]1OC[C@H]2OC(=O)c1ccccc1OC(C)=O` returned a half-life of 1 min.

Regarding `COc1ccccc1COC1(C)OC(=O)c2ccccc2O1` (centres undefined), the half-life in data set [4] was found to be 26.7 min. `CC(=O)Oc1ccccc1C(=O)OCOC(=O)c1ccc(OCCCO[N+](=O)[O-])c(OC(=O)CCN)c1` had a half-life at 50 µM in [5] of 57 min. Further, in data set [6], the half-life at 10 µM is < 1 min.

Regarding `CC(=O)Oc1ccccc1C(=O)Oc1ccccc1C=O`, the half-life at 48 h in data set [7] amounted to 15 min. Compound `CCOP(=O)(OCC)OCC(COC(=O)c1ccccc1OC(C)=O)OP(=O)(OCC)OCC` (centres undefined) displayed a half-life at 1 µM in [8] of 28 min. `CC(=O)Oc1ccccc1C(=O)O[C@H]1CO[C@H]2[C@@H]1OC[C@H]2O[N+](=O)[O-]` yielded a t1/2 in data set [9] of 0.183 min.

Values taken from ChEMBL document CHEMBL5233234, “True or false? Challenges and recent highlights in the development of aspirin prodrugs” (Eur J Med Chem, 2020).
